Tests used:
[1] = Phase 1 open label pharmacokinetic study of oral deflazacort tablets (0.9 mg/kg/day, 8 days) in children and adolescents with DMD; format: in vivo, human; settings: for geometric mean terminal elimination half-life: Day 1; for time by which plasma concentrations were quantifiable (first post-dose sample): all children and adolescents, Days 1 and 8
Method: FIG. 1 is a line graph illustrating mean plasma 21-desDFZ (active deflazacort metabolite) concentration (ng/mL; y-axis) vs. time (hours; x-axis) overlaid by study population on Day 8 (linear scale; circles=adolescent; triangles=child). Children (ages 5-11, inclusive) and adolescents (ages 12-16, inclusive) were administered the weight-based regimen of 0.9 mg/kg/day deflazacort orally once daily for 8 days. Blood samples were collected through eight hours post-dose. Blood samples were processed to plasma and concentrations of 21-desDFZ were measured using validated bioanalytical assays.
Pharmacokinetic analysis was performed as part of an open label, Phase 1 single-period study. Twenty-six (26) male DMD subjects were enrolled, consisting of children (ages 4 up to 12) and adolescents (ages 12 to 16, inclusive) with at least 12 subjects between the ages of 4 and 12 (children). The primary objective of the study was characterization of the single-dose and steady-state PK of deflazacort and its active deflazacort metabolite (21-desDFZ). The characterization of the PK of the 21-desDFZ metabolite 6β-OH-21-desDFZ was included as a secondary outcome. A total of 24 subjects (16 children and 8 adolescents) received deflazacort tablets (0.9 mg/kg/day) for 8 days. Blood samples for PK profiles were collected on Days 1 and 8. All 24 subjects who completed the study had sufficient data to use in the PK analysis. Plasma 21-desDFZ concentrations were quantifiable by the time of the first post-dose sample collection (0.5 hours) in all children and adolescents on Days 1 and 8. Plasma 21-desDFZ concentrations remained above the limit of quantification in most subjects over the 8-hour sampling window on both study days.

[2] = Applicants' clinical observation of deflazacort in ambulatory and non-ambulatory DMD patients; format: in vivo, human; settings: as early as six weeks after treatment initiation, preserved up to 24-months
[3] = Day 1, deflazacort 0.9 mg/kg/day orally
[4] = Day 8, deflazacort 0.9 mg/kg/day orally
[5] = Days 1 and 8, deflazacort 0.9 mg/kg/day orally
[6] = after a single oral dose of deflazacort and at steady-state

Row | geometric mean Cmax, adolescents relative to children [1, 3] | geometric mean Cmax, adolescents relative to children [1, 4] [fold] | geometric mean AUCinf, adolescents relative to children [1, 5] | geometric mean AUClast, adolescents relative to children [1, 5] | geometric mean terminal elimination half-life ([1]; adolescents) [h] | time by which plasma concentrations were quantifiable (first post-dose sample) [1] [h] | geometric mean terminal elimination half-life ([1]; children) [h] | mean plasma concentration in children as percent of that observed in adolescents ([1]; about one hour following administration, Day 8, deflazacort 0.9 mg/kg/day orally) [%] | clearance (CL/F), children vs adolescents [1, 6] | volume of distribution (Vd/F), children vs adolescents [1, 6] | Structure (SMILES) | muscle strength in ambulatory and non-ambulatory patients [2]
1 | roughly 1.25 fold | ~1.30 | roughly 1.25 Fold | roughly 1.25 Fold | 1.72 | ≤ 0.5 | 1.63 | – | – | – | CC1=N[C@]2(C(=O)CO)[C@@H](C[C@H]3[C@@H]4C[C@@H](O)C5=CC(=O)C=C[C@]5(C)[C@H]4[C@@H](O)C[C@@]32C)O1 [6β-OH-21-desDFZ] | –
2 | almost double | 1.5 | – | – | 1.34 | ≤ 0.5 | 1.17 | 67 | no differences | no differences | CC1=N[C@]2(C(=O)CO)[C@@H](C[C@H]3[C@@H]4CCC5=CC(=O)C=C[C@]5(C)[C@H]4[C@@H](O)C[C@@]32C)O1 [21-desDFZ, 21-desacetyldeflazacort] | –
3 | – | – | – | – | – | – | – | – | – | – | CC(=O)OCC(=O)[C@@]12N=C(C)O[C@@H]1C[C@H]1[C@@H]3CCC4=CC(=O)C=C[C@]4(C)[C@H]3[C@@H](O)C[C@@]12C [deflazacort, (11β,16β)-21-(acetyloxy)-11-hydroxy-2′-methyl-5′H-pregna-1,4-dieno[17,16-d]oxazole-3,20-dione] | improves muscle strength
